Experimental findings from patent publication US20160340322A1 (NISSAN CHEMICAL INDUSTRIES, LTD., priority 2013, published 2016) are described below.

This assay deals with T1, Human T-type calcium channel (Cav 3.2) (Homo sapiens, UniProt O95180).
T1 construct: Edward Perez-Reyes, University of Virginia, USA; host or cells: HEK293
T1 sequence (O95180 whole entry): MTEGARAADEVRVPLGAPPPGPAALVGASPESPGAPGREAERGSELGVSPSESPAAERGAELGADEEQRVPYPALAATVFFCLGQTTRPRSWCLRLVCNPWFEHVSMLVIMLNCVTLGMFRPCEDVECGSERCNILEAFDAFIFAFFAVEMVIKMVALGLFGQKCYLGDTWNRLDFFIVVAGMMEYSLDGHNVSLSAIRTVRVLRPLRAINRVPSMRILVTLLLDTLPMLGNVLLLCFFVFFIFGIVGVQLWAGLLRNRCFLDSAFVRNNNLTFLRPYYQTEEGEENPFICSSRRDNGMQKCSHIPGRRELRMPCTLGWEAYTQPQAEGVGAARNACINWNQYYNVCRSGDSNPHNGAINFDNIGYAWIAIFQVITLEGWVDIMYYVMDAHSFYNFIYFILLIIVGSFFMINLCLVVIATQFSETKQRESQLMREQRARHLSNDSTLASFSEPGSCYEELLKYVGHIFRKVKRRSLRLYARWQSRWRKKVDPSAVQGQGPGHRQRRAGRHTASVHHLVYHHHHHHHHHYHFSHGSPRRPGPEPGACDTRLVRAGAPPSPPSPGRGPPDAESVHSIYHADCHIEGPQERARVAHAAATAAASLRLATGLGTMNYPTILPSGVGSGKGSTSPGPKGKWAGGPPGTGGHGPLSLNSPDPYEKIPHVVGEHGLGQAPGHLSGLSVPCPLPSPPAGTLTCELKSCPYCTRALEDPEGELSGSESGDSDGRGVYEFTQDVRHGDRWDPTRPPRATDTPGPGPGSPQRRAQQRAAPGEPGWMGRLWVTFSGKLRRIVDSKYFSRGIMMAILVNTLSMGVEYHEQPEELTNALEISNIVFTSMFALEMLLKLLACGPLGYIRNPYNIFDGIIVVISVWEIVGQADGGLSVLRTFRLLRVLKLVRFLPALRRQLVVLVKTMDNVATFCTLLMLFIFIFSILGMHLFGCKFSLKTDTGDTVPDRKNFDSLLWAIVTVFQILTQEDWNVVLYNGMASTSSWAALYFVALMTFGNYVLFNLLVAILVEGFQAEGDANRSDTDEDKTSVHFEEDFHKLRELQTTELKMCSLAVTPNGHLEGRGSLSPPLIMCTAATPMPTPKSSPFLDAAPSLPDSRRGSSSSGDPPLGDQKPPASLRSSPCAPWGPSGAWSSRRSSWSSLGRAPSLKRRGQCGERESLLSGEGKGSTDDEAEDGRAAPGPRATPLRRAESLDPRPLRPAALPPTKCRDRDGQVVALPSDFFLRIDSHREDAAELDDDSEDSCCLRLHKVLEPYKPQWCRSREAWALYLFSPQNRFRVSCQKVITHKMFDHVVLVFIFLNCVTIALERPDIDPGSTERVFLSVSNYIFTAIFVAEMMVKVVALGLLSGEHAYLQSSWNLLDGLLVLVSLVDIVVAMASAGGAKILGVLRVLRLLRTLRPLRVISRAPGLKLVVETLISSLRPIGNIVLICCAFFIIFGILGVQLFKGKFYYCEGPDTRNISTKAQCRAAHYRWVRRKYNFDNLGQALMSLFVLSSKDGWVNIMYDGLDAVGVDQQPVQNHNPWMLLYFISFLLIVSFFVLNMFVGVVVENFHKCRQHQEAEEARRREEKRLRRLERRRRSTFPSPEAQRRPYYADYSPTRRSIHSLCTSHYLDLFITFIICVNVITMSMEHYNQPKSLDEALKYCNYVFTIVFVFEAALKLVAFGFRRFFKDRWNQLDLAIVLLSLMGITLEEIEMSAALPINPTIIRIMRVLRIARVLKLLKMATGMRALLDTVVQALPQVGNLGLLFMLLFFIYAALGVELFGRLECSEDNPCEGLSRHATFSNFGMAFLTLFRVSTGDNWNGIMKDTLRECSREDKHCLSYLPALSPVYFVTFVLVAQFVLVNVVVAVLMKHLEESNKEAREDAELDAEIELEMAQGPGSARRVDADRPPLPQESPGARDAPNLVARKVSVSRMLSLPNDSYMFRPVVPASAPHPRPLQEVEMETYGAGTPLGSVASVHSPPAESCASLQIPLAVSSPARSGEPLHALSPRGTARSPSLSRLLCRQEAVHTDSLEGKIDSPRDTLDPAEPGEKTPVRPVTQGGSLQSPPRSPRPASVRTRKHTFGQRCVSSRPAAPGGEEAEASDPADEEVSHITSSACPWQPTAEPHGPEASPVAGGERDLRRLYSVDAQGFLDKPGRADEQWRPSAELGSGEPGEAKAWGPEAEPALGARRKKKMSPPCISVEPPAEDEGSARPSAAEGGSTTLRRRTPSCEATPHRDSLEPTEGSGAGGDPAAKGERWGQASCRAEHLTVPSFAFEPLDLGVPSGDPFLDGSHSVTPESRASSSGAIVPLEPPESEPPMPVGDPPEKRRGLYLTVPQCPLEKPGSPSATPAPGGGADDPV
As to the kind of experiment: Calcium Influx Inhibition Assay. The settings on record: human T-type calcium channel (Cav 3.2) expressing HEK293 cells; FLIPR Calcium 4 fluorescence; 30 min compound incubation; read-out: T-type calcium channel inhibition concentration IC50. Format: cell-based. On the procedure:
1. Calcium Influx Inhibition Assay Human T-type calcium channel (Cav 3.2) expressing HEK293 cells were introduced from Prof. Edward Perez-Reyes, University of Virginia, USA. The calcium-sensitive fluorescent dye used was FLIPR Calcium 4 Assay Kit (Molecular Devices). To a black 96-well plate with a clear bottom coated with type I collagen, the human T-type calcium channel (Cav 3.2) expressing HEK293 cells were seeded and cultured overnight, and the culture medium was removed. A solution of the calcium-sensitive fluorescent dye was added, and the resultant plate was incubated at 37° C. in an atmosphere of 5% carbon dioxide for 30 minutes. To the plate, a diluted solution of a compound was added, and subjected to further incubation at 37° C. in an atmosphere of 5% carbon dioxide for 30 minutes. While fluorescence was continuously analyzed from the bottom with a FlexStation 3 (Molecular Devices), a calcium solution was added. […] Based on the rise value in the fluorescence from the base line, the inhibition percentage was calculated. The logarithms of compound concentrations were plotted with respect to the inhibition activities to obtain an IC50 value.
In the case of `Cc1cccc(C2=CCN(c3cnn(Cc4ccc(C(F)(F)F)s4)c(=O)n3)C[C@@H]2O)n1` [Synthesis Example 31, (R)-5-[5′-Hydroxy-6-methyl-5′,6′-dihydro-(2,4′-bipyridin)-1′(2′H)-yl]-2-{[5-(trifluoromethyl)thiophen-2-yl]methyl}-1,2,4-triazin-3 (2H)-one], the IC50 is 120 nM.

`COc1cccc(C2=CCN(c3cnn(Cc4ccc(C(F)(F)F)s4)c(=O)n3)C[C@@H]2O)n1` [Synthesis Example 32]: the IC50 was 48 nM.

In the case of `Cc1nc(N2CCN(c3cnn(Cc4ccc(C(F)(F)F)s4)c(=O)n3)CC2)ccc1F` [Synthesis Example 33], the IC50 is 32 nM.

As for `O=c1nc(N2CCN(c3ccc(F)c(Cl)c3)CC2)cnn1Cc1ccc(C(F)(F)F)s1` [Synthesis Example 34], the IC50 is 61 nM.

For the compound `O=c1nc(N2CC=C(c3ccc(F)cc3)C(F)C2)cnn1Cc1ccc(C(F)(F)F)s1` (stereo not shown) [Synthesis Example 35, 5-[5-Fluoro-4-(4-fluorophenyl)-5,6-dihydropyridin-1(2H)-yl]-2-{[5-(trifluoromethyl)thiophen-2-yl]methyl}-1,2,4-triazin-3(2H)-one], the IC50 was determined as 31 nM.

In the case of `NC1CN(c2cnn(Cc3ccc(C(F)(F)F)s3)c(=O)n2)CC=C1c1ccc(F)cc1` (stereo not shown) [Synthesis Example 36, 5-[5-Amino-4-(4-fluorophenyl)-5,6-dihydropyridin-1(2H)-yl]-2-{[5-(trifluoromethyl)thiophen-2-yl]methyl}-1,2,4-triazin-3(2H)-one], the IC50 was 3.4 nM.

`Cc1ccc(C2=CCN(c3cnn(Cc4ccc(C(F)(F)F)s4)c(=O)n3)C[C@@H]2O)o1` [Synthesis Example 37, (R)-5-[5-Hydroxy-4-(5-methylfuran-2-yl)-5,6-dihydropyridin-(2H)-yl]-2-{[5-(trifluoromethyl)thiophen-2-yl]methyl}-1,2,4-triazin-3(2H)-one]: the IC50 amounted to 4.8 nM.

For the compound `Cn1cc(C2=CCN(c3cnn(Cc4ccc(C(F)(F)F)s4)c(=O)n3)C[C@@H]2O)cn1` [Synthesis Example 38, (R)-5-[5-Hydroxy-4-(1-methyl-1H-pyrazol-4-yl)-5,6-dihydropyridin-1(2H)-yl]-{[5-(trifluoromethyl)thiophen-2-yl]methyl}-1,2,4-triazin-3(2H)-one], the IC50 was found to be 180 nM.

With `Cn1ccc(C2=CCN(c3cnn(Cc4ccc(C(F)(F)F)s4)c(=O)n3)CC2)n1` [Synthesis Example 39, 5-[4-(1-Methyl-1H-pyrazol-3-yl)-5,6-dihydropyridin-1(2H)-yl]-2-{[5-(trifluoromethyl)thiophen-2-yl]methyl}-1,2,4-triazin-3(2H)-one], the IC50 turned out to be 1300 nM.

On to `Cc1cc(N2CCN(c3cnn(Cc4ccc(C(F)(F)F)s4)c(=O)n3)CC2)cs1` [Synthesis Example 40, 5-[4-(5-Methylthiophen-3-yl)piperazin-1-yl]-2-{[5-(trifluoromethyl)thiophen-2-yl]methyl}-1,2,4-triazin-3(2H)-one], for which the IC50 came out at 69 nM.

Regarding `O=c1nc(N2CCN(c3ccc(Cl)cc3)CC2)cnn1Cc1ccc(C(F)(F)F)s1` [Synthesis Example 41, 5-[4-(4-Chlorophenyl)piperazin-1-yl]-2-{[5-(trifluoromethyl)thiophen-2-yl]methyl}-1,2,4-triazin-3(2H)-one], the IC50 came out at 29 nM.

On to `COc1ccc2c(c1)CCN(c1cnn(Cc3ccc(C(F)(F)F)s3)c(=O)n1)C2C` (stereo not shown) [Synthesis Example 42, 5-[6-Methoxy-1-methyl-3,4-dihydroisoquinolin-2(1H)-yl]-2-{[5-(trifluoromethyl)thiophen-2-yl]methyl}-1,2,4-triazin-3(2H)-one], for which the IC50 is 600 nM.

In the case of `O=c1nc(N2CC=C(c3ccc(F)c(Cl)c3)[C@@H](O)C2)cnn1Cc1cnc(C(F)(F)F)s1` [Synthesis Example 43, (R)-5-[4-(3-Chloro-4-fluorophenyl)-5-hydroxy-5,6-dihydropyridin-1(2H)-yl]-2-{[2-(trifluoromethyl)thiazol-5-yl]methyl}-1,2,4-triazin-3(2H)-one], the IC50 stood at 54 nM.

`O=c1nc(N2CCc3cc(C(F)(F)F)ccc3C2)cnn1Cc1cnc(C(F)(F)F)s1` [Synthesis Example 44, 5-[6-(trifluoromethyl)-3,4-dihydroisoquinolin-2-(1H)-yl]-2-{[2-(trifluoromethyl)thiazol-5-yl]methyl}-1,2,4-triazin-3(2H)-one]: the IC50 was found to be 570 nM.

For the compound `Cc1ccc(C2=CCN(c3cnn(Cc4cnc(C(F)(F)F)s4)c(=O)n3)C[C@@H]2O)cc1F` [Synthesis Example 45, (R)-5-[4-(3-Fluoro-4-methylphenyl)-5-hydroxy-5,6-dihydropyridin-1(2H)-yl]-2-{[2-(trifluoromethyl)thiazol-5-yl]methyl}-1,2,4-triazin-3(2H)-one], the IC50 was 130 nM.

For the compound `O=c1nc(N2CC=C(c3ccc(F)cc3)[C@@H](O)C2)cnn1Cn1ccc(C(F)(F)F)n1` [Synthesis Example 46, (R)-5-[4-(4-Fluorophenyl)-5-hydroxy-5,6-dihydropyridin-(2H)-yl]-2-{[3-(trifluoromethyl)-1H-pyrazol-1-yl]methyl}-1,2,4-triazin-3(2H)-one], the IC50 stood at 110 nM.

`O=c1nc(N2CC=C(c3ccc(F)cc3)[C@@H](O)C2)cnn1Cn1cc(Cl)cn1` [Synthesis Example 47, (R)-2-[(4-Chloro-1H-pyrazol-1-yl)methyl]-5-[4-(4-fluorophenyl)-5-hydroxy-5,6-dihydropyridin-1(2H)-yl]-1,2,4-triazin-3(2H)-one]: the IC50 came out at 2600 nM.

As to `CC(C)(C)c1ccc(Cn2ncc(N3CC=C(c4ccc(F)cc4)[C@@H](O)C3)nc2=O)s1` [Synthesis Example 48, (R)-2-{[5-(Tert-butyl)thiophen-2-yl]methyl}-5-[4-(4-fluorophenyl)-5-hydroxy-5,6-dihydropyridin-(2H)-yl]-1,2,4-triazin-3(2H)-one], the IC50 is 6.4 nM.

Consider `O=c1nc(N2CC=C(c3ccc(F)cc3)[C@@H](O)C2)cnn1Cn1ccc(C(F)(F)C(F)(F)F)n1` [Synthesis Example 49, (R)-5-[4-(4-Fluorophenyl)-5-hydroxy-5,6-dihydropyridin-1(2H)-yl]-2-{[3-(perfluoroethyl)-1 H-pyrazol-1-yl]methyl}-1,2,4-triazin-3(2H)-one], for which the IC50 was determined as 25 nM.

As to `CC(C)(C)c1ncc(Cn2ncc(N3CC=C(c4ccc(F)cc4)[C@@H](O)C3)nc2=O)o1` [Synthesis Example 50, (R)-2-{[2-(Tert-butyl)oxazol-5-yl]methyl}-5-[4-(4-fluorophenyl)-5-hydroxy-5,6-dihydropyridin-1(2H)-yl]-1,2,4-triazin-3(2H)-one], the IC50 came to 62 nM.

For the compound `O=c1nc(N2CC=C(c3ccc(F)cc3)[C@@H](O)C2)cnn1Cc1ccc(OS(=O)(=O)C(F)(F)F)nc1` [Synthesis Example 51, (R)-5-({5-[4-(4-Fluorophenyl)-5-hydroxy-5,6-dihydropyridin-1(2H)-yl]-3-oxo-1,2,4-triazin-2(3H)-yl}methyl)pyridin-2-yl trifluoromethanesulfonate], the IC50 is 5.6 nM.

Consider `Cc1ccc(C2=CCN(c3cnn(Cc4ccc(C(F)(F)F)s4)c(=O)n3)C[C@@H]2O)cc1F` [Synthesis Example 52, (R)-5-[4-(3-Fluoro-4-methylphenyl)-5-hydroxy-5,6-dihydropyridin-1(2H)-yl]-2-{[5-(trifluoromethyl)thiophen-2-yl]methyl}-1,2,4-triazin-3(2H)-one], for which the IC50 is 7.9 nM.

With `O=c1nc(N2CCc3cc(C(F)(F)F)ccc3C2)cnn1Cc1ccc(C(F)(F)F)s1` [Synthesis Example 53, 5-[6-(trifluoromethyl)-3,4-dihydroisoquinolin-2(1H)-yl]-2-{[5-(trifluoromethyl)thiophen-2-yl]methyl}-1,2,4-triazin-3(2H)-one], the IC50 came to 170 nM.

Take `O=c1nc(N2CC=C(c3ccc(F)c(Cl)c3)[C@@H](O)C2)cnn1Cc1ccc(C(F)(F)F)s1` [Synthesis Example 54, (R)-5-[4-(3-Chloro-4-fluorophenyl)-5-hydroxy-5,6-dihydropyridin-1(2H)-yl]-2-{[5-(trifluoromethyl)thiophen-2-yl]methyl}-1,2,4-triazin-3(2H)-one]: the IC50 was found to be 3.1 nM.

In the case of `O=c1nc(N2Cc3ccc(OC(F)F)cc3C(O)C2)cnn1Cc1cnc(C(F)(F)F)s1` (stereo not shown) [Synthesis Example 55], the IC50 is 1000 nM.
